Source: publication PMC6079014, “Calcium is an essential cofactor for metal efflux by the ferroportin transporter family” (Nature Communications, 2018)

Tests used:
Fpn-C2-E219A = biological target: T1, Fpn-C2-E219A (Mus musculus, UniProt Q9JHI9, DEL251-290/DEL401-449/E219A); experiment: Isothermal titration calorimetry, Fpn-C2-E219A mutant; type: binding
T1 construct: generated from full-length mouse Fpn (UniProt: Q9JHI9); GFP (C); made in house; host or cells: Sf9 insect cells (baculovirus)
T1 sequence (Q9JHI9 with tags, fused parts or gaps E219A/DEL251-290/DEL401-449): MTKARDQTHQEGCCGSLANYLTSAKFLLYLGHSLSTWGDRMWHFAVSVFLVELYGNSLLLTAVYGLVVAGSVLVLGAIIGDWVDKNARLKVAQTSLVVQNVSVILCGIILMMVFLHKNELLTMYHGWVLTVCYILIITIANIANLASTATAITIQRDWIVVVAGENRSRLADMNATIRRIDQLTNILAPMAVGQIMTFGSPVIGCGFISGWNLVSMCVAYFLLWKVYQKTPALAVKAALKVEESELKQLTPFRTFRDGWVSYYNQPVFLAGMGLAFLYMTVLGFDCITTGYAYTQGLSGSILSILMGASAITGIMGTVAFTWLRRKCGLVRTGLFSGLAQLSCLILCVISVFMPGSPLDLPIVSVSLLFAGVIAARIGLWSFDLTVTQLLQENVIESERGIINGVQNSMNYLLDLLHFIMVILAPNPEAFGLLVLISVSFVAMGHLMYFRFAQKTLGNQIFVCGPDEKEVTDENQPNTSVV
Text: To obtain a purified mammalian Fpn protein conducive for biophysical studies, we generated a protein construct with an increased thermal stability (Deshpande et al., 2018). In brief, the construct (Fpn-C2) was generated from full-length mouse Fpn (UniProt: Q9JHI9 [https://www.uniprot.org/uniprot/Q9JHI9]) by deleting two-loop regions (residues 251–290 and 401–449), followed by an overlapping PCR incorporating the E219A mutation to generate Fpn-C2-E219A. […]
For Fpn-C2 and Fpn-C2-E219A purification (Deshpande et al., 2018), Sf9 cells were thawed at room temperature with the addition of 2 μl Benzonase (250 units/μL, Sigma-Aldrich), 1 mM MgSO4, 0.2 mM PMSF, and lysed by a single pass through cooled EmulsiFlex-C3 homogenizer (Avestin). […] The SEC eluted protein was concentrated to ~10 mg/ml as determined by the BCA assay (Thermo Fisher Scientific) method and stored at −80 °C until further use. […]
In each experiment, the protein solution was loaded into the sample cell, and the ligand solution was loaded in the syringe. […] To obtain the effective heat of binding, the heat of dilution, measured by injecting the ligand solution alone into buffer, was subtracted prior to data analysis. […]

BbFpn E203A = BbFpn E203A (Bdellovibrio bacteriovorus, UniProt Q6MLJ0, E203A); experiment: Isothermal titration calorimetry, E203A BbFpn; type: binding, Bdellovibrio bacteriovorous
Sequence of BbFpn E203A (Q6MLJ0 whole entry E203A): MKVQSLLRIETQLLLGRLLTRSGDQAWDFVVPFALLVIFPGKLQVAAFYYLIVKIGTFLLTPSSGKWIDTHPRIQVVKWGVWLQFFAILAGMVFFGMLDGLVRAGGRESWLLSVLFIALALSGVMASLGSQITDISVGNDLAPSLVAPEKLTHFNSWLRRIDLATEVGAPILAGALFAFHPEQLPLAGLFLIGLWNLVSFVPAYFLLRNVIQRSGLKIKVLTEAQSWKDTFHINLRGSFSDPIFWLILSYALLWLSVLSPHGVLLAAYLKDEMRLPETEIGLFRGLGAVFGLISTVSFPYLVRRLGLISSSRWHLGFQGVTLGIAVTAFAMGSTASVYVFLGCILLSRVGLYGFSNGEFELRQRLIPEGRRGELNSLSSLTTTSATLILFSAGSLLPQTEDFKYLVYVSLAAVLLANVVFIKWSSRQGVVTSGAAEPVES

## [Ca+2] [Ca^2+, calcium]
Fpn-C2-E219A
  Binding to Fpn-C2-E219A by ITC (in words): no binding
BbFpn E203A
  Binding to E203A BbFpn by ITC (in words): complete loss
